From ChEMBL document CHEMBL4041546, “Synthesis and antimicrobial studies of novel derivatives of 4-(4-formyl-3-phenyl-1H-pyrazol-1-yl)benzoic acid as potent anti-Acinetobacter baumannii agents” (Bioorg Med Chem Lett, 2017)
In brackets after ≈: the same amount, converted by molar mass. Activity calls are given as the source filed them. The calls are words filed in the database; no cut-off is given here.

What was measured:
Staphylococcus aureus [1] = assay: Antibacterial activity against methicillin-resistant Staphylococcus aureus ATCC 43300 by disk diffusion assay; format: functional
Acinetobacter baumannii [2] = assay: Antibacterial activity against Acinetobacter baumannii ATCC 19606 by disk diffusion assay; format: functional
Escherichia coli = assay: Antibacterial activity against Escherichia coli by disk diffusion assay; format: functional
Bacillus subtilis = assay: Antibacterial activity against Bacillus subtilis by disk diffusion assay; format: functional
Staphylococcus aureus [3] = assay: Antibacterial activity against methicillin-resistant Staphylococcus aureus ATCC 43300; format: functional
[4] = Cytotoxicity against HEK293 cells; format: cell-based; conditions: human
Acinetobacter baumannii [5] = assay: Antibacterial activity against Acinetobacter baumannii ATCC 19606; format: functional; conditions: ATCC 19606 = CIP 70.34 = JCM 6841
Acinetobacter baumannii [6] = assay: Antibacterial activity against Acinetobacter baumannii ATCC 19606 at 0.01 M by disk diffusion assay; format: functional, ATCC 19606 = CIP 70.34 = JCM 6841
Acinetobacter baumannii [7] = assay: Antibacterial activity against Acinetobacter baumannii ATCC 19606 at 0.1 M by disk diffusion assay; format: functional, ATCC 19606 = CIP 70.34 = JCM 6841
Acinetobacter baumannii [8] = assay: Potency index, ratio of chloramphenicol MIC to compound MIC for Acinetobacter baumannii ATCC 19606; format: functional, ATCC 19606 = CIP 70.34 = JCM 6841
[9] = ATCC 19606 = CIP 70.34 = JCM 6841

| Structure (SMILES) | inhibition zone (IZ) (Staphylococcus aureus [1]) | inhibition zone (IZ) (Bacillus subtilis) | other results |
| --- | --- | --- | --- |
| N/N=C/c1cn(-c2ccc(C(=O)O)cc2)nc1-c1ccccc1 | 7 mm | 7 mm | inhibition zone (IZ) (Acinetobacter baumannii [2]; [9]): inactive; inhibition zone (IZ) (Escherichia coli): inactive |
| O=C(O)c1ccc(N/N=C/c2cn(-c3ccc(C(=O)O)cc3)nc2-c2ccccc2)cc1 | inactive | inactive | inhibition zone (IZ) (Acinetobacter baumannii [2]; [9]): inactive; inhibition zone (IZ) (Escherichia coli): inactive |
| COc1ccc(C(=O)N/N=C/c2cn(-c3ccc(C(=O)O)cc3)nc2-c2ccccc2)cc1 | 8 mm | 11 mm |  |
| Cc1ccc(S(=O)(=O)N/N=C/c2cn(-c3ccc(C(=O)O)cc3)nc2-c2ccccc2)cc1 | 12 mm | 11 mm |  |
| Cc1cc(NCc2cn(-c3ccc(C(=O)O)cc3)nc2-c2ccccc2)ccc1F | 15 mm | 16 mm |  |
| O=C(O)c1ccc(-n2cc(/C=N/NC(=O)c3ccccc3)c(-c3ccccc3)n2)cc1 | 8 mm | 8 mm |  |
| O=C(O)c1ccc(-n2cc(CNc3ccc(CCO)cc3)c(-c3ccccc3)n2)cc1 | 9 mm | 10 mm |  |
| O=C(O)c1ccc(-n2cc(CNc3cc(C(F)(F)F)cc(C(F)(F)F)c3)c(-c3ccccc3)n2)cc1 | 22 mm | 25 mm | MIC (Staphylococcus aureus [3]): 32 µg/mL (≈ 63.3 µM); CC50 [4]: > 32 µg/mL |
| O=C(O)c1ccc(-n2cc(/C=N/NC(=O)c3ccccc3O)c(-c3ccccc3)n2)cc1 | inactive | inactive |  |
| O=C(O)c1ccc(-n2cc(CNc3ccc(Cl)c(Cl)c3)c(-c3ccccc3)n2)cc1 | 11 mm | 11 mm | MIC (Staphylococcus aureus [3]): 16 µg/mL (≈ 36.5 µM); CC50 [4]: 18 µg/mL (≈ 41.1 µM) |
| O=C(O)c1ccc(-n2cc(CNc3ccc(Cl)c(C(F)(F)F)c3)c(-c3ccccc3)n2)cc1 | 17 mm | 17 mm | MIC (Staphylococcus aureus [3]): 32 µg/mL (≈ 67.8 µM); CC50 [4]: > 32 µg/mL |
| Cc1cc(NCc2cn(-c3ccc(C(=O)O)cc3)nc2-c2ccccc2)ccc1Br | 15 mm | 17 mm | MIC (Staphylococcus aureus [3]): 16 µg/mL (≈ 34.6 µM); CC50 [4]: 17.9 µg/mL (≈ 38.7 µM) |
| O=C(O)c1ccc(-n2cc(/C=N/NC(=O)c3ccc4ccccc4c3O)c(-c3ccccc3)n2)cc1 | inactive | inactive |  |
| O=C(O)c1ccc(-n2cc(/C=N/NC(=O)c3ccccc3F)c(-c3ccccc3)n2)cc1 | 10 mm | 11 mm |  |
| O=C(O)c1ccc(-n2cc(CNc3ccc(F)c(C(F)(F)F)c3)c(-c3ccccc3)n2)cc1 | 21 mm | 22 mm | MIC (Staphylococcus aureus [3]): 32 µg/mL (≈ 70.3 µM); CC50 [4]: > 32 µg/mL |
| O=C(O)c1ccc(-n2cc(CNc3ccc(F)c([N+](=O)[O-])c3)c(-c3ccccc3)n2)cc1 | 14 mm | 12 mm |  |
| O=C(O)c1ccc(-n2cc(/C=N/Nc3ccccc3)c(-c3ccccc3)n2)cc1 | 10 mm | 11 mm | inhibition zone (IZ) (Acinetobacter baumannii [2]): 28 mm; inhibition zone (IZ) (Escherichia coli): inactive |
| O=C(N[C@H](CO)[C@H](O)c1ccc([N+](=O)[O-])cc1)C(Cl)Cl [CHLORAMPHENICOL] | 25 - 36 mm | 36 mm | MIC (Acinetobacter baumannii [5]): 16 µg/mL (≈ 49.5 µM); inhibition zone (IZ) (Acinetobacter baumannii [2]): 18 - 22 mm; inhibition zone (IZ) (Escherichia coli): 39 mm |
| O=C(O)c1ccc(-n2cc(CNc3cc(C(=O)O)cc(C(=O)O)c3)c(-c3ccccc3)n2)cc1 | 10 mm | 9 mm |  |
| O=C(O)c1cn(C2CC2)c2cc(N3CCNCC3)c(F)cc2c1=O [CIPROFLOXACIN] | 36 mm | 44 mm | MIC (Acinetobacter baumannii [5]): 1.56 µg/mL (≈ 4.71 µM); inhibition zone (IZ) (Acinetobacter baumannii [2]): 32 - 37 mm; inhibition zone (IZ) (Escherichia coli): 39 mm |
| O=C(O)c1ccc(-n2cc(/C=N/NS(=O)(=O)c3ccccc3)c(-c3ccccc3)n2)cc1 | 9 mm | 10 mm |  |

| Structure (SMILES) | inhibition zone (IZ) (Staphylococcus aureus [1]) | inhibition zone (IZ) (Bacillus subtilis) | other results |
| --- | --- | --- | --- |
| COC(=O)N/N=C/c1cn(-c2ccc(C(=O)O)cc2)nc1-c1ccccc1 | inactive | inactive |  |
| O=C(O)c1ccc(-n2cc(/C=N/Nc3ccccc3F)c(-c3ccccc3)n2)cc1 | 13 mm | 17 mm | inhibition zone (IZ) (Acinetobacter baumannii [2]): 34 mm; inhibition zone (IZ) (Escherichia coli): inactive |
| O=C(O)c1ccc(-n2cc(/C=N/Nc3ccc(Cl)cc3Cl)c(-c3ccccc3)n2)cc1 | 10 mm | 11 mm | inhibition zone (IZ) (Acinetobacter baumannii [2]; [9]): inactive; inhibition zone (IZ) (Escherichia coli): inactive |
| O=C(O)c1ccc(-n2cc(CNc3ccc(F)c(Cl)c3)c(-c3ccccc3)n2)cc1 | 11 mm | 11 mm |  |
| O=C(O)c1ccc(-n2cc(/C=N/Nc3ccc(F)cc3)c(-c3ccccc3)n2)cc1 | 16 mm | 18 mm | inhibition zone (IZ) (Acinetobacter baumannii [6]): 32 mm; MIC (Acinetobacter baumannii [5]): 8 µg/mL (≈ 20 µM); CC50 [4]: > 32 µg/mL; inhibition zone (IZ) (Acinetobacter baumannii [7]): >85 mm; inhibition zone (IZ) (Escherichia coli): 8 mm |
| O=C(O)c1ccc(-n2cc(/C=N/Nc3ccc([N+](=O)[O-])cc3)c(-c3ccccc3)n2)cc1 | inactive | inactive | inhibition zone (IZ) (Acinetobacter baumannii [2]): 22 mm; inhibition zone (IZ) (Escherichia coli): inactive |
| O=C(O)c1ccc(-n2cc(/C=N/NC(=O)c3ccc(O)cc3)c(-c3ccccc3)n2)cc1 | inactive | inactive |  |
| NC(=S)N/N=C/c1cn(-c2ccc(C(=O)O)cc2)nc1-c1ccccc1 | inactive | inactive |  |
| O=C(O)c1ccc(-n2cc(CNc3ccc(Br)c(C(F)(F)F)c3)c(-c3ccccc3)n2)cc1 | 15 mm | 12 mm | MIC (Staphylococcus aureus [3]): 32 µg/mL (≈ 62 µM); CC50 [4]: > 32 µg/mL |
| CC(=O)N/N=C/c1cn(-c2ccc(C(=O)O)cc2)nc1-c1ccccc1 | inactive | inactive |  |
| Cc1ccccc1NCc1cn(-c2ccc(C(=O)O)cc2)nc1-c1ccccc1 | 14 mm | 16 mm |  |
| Cc1ccc(NCc2cn(-c3ccc(C(=O)O)cc3)nc2-c2ccccc2)cc1Cl | 13 mm | 16 mm | MIC (Staphylococcus aureus [3]): 16 µg/mL (≈ 38.3 µM); CC50 [4]: 20 µg/mL (≈ 47.9 µM) |
| O=C(O)c1ccc(-n2cc(/C=N/NC(=O)c3ccc(F)cc3)c(-c3ccccc3)n2)cc1 | inactive | inactive |  |
| NC(=O)N/N=C/c1cn(-c2ccc(C(=O)O)cc2)nc1-c1ccccc1 | inactive | inactive |  |
| O=C(O)c1ccc(-n2cc(/C=N/NC(=O)c3ccncc3)c(-c3ccccc3)n2)cc1 | inactive | inactive |  |
| O=C(O)c1ccc(-n2cc(/C=N/Nc3ccc(Br)cc3)c(-c3ccccc3)n2)cc1 | 10 mm | 10 mm | MIC (Acinetobacter baumannii [5]): 8 µg/mL (≈ 17.3 µM); CC50 [4]: > 32 µg/mL; inhibition zone (IZ) (Acinetobacter baumannii [2]): 42 mm; inhibition zone (IZ) (Escherichia coli): inactive |
| O=C(O)c1ccc(-n2cc(/C=N/NC(=O)c3cccnc3)c(-c3ccccc3)n2)cc1 | inactive | inactive |  |
| CN1CCN(/N=C/c2cn(-c3ccc(C(=O)O)cc3)nc2-c2ccccc2)CC1 | inactive | inactive | inhibition zone (IZ) (Acinetobacter baumannii [2]; [9]): inactive; inhibition zone (IZ) (Escherichia coli): inactive |
| O=C(O)c1ccc(-n2cc(/C=N/Nc3ccc(Cl)cc3)c(-c3ccccc3)n2)cc1 | 16 mm | 13 mm | Ratio (Acinetobacter baumannii [8]): 4; MIC (Acinetobacter baumannii [5]): 4 µg/mL (≈ 9.6 µM); CC50 [4]: > 32 µg/mL; inhibition zone (IZ) (Acinetobacter baumannii [2]): 54 mm; inhibition zone (IZ) (Escherichia coli): 8 mm |
| O=C(O)c1ccc(-n2cc(CNc3cccc(C(=O)O)c3)c(-c3ccccc3)n2)cc1 | inactive | inactive |  |
